These results are taken from EP2818472A1, “Imidazo[4,5-c]pyridine and pyrrolo[3,2-c]pyridine compounds as G-protein-coupled receptor kinase 5 (GRK5) modulators” (Max-Planck-Gesellschaft zur Förderung der Wissenschaften …, priority 2013, dated 2014).

This assay has as its system beta-TC6 cells. The experiment in a line: Insulin HTRF assay (relative activity Ar) in beta-TC6 cells. Type of assay: cell-based, mouse. The conditions noted are these: Mus musculus, Beta-TC6, 4 h, insulin HTRF, supernatant of beta-TC6 cells, incubation with test compound at 37°C for 2, 3, 4h; read-out: Ar (relative activity). In short, it runs like this: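 beta-TC6 cells (15k/well, seeded 24 or 48 h) washed, then exposed to compound in induction buffer (0.5% DMSO final) for 2, 3 or 4 h at 37°C.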
(TR-FRET usually uses a lanthanide donor and a delayed reading to cut background.)

Structures are written as SMILES.

As to `CS(=O)(=O)Nc1cccc(Nc2cc3[nH]c(-c4cccc(F)c4)cc3cn2)c1` [Compound 13, N-[3-[[2-(3-fluorophenyl)-1H-pyrrolo[3,2-c]pyridin-6-yl]amino]phenyl]methanesulfonamide], the Emax fell in the range of 50 to 100%.
Next, `Cn1c(NCc2ccccc2)nc2cnc(-c3ccc(N4CCOCC4)cc3)cc21` [Compound 614, N-benzyl-1-methyl-6-(4-morpholinophenyl)imidazo[4,5-c]pyridin-2-amine]: 50 to 100%; `c1ccc(Cn2c(-c3ccccc3)cc3cnc(Nc4ccncn4)cc32)cc1` [Compound 184, 1-benzyl-2-phenyl-N-pyrimidin-4-yl-pyrrolo[3,2-c]pyridin-6-amine]: 30 to 50%.
The result for `COC(=O)c1ccc(Nc2nccc3[nH]c(-c4ccsc4)cc23)cc1` [Compound 261, methyl 4-[[2-(3-thienyl)-1H-pyrrolo[3,2-c]pyridin-4-yl]amino]benzoate] reads 0 to 30%; that for `Cn1cc(-c2cc3c(cn2)nc(NCc2ccccc2)n3C)cn1` [Compound 624, N-benzyl-1-methyl-6-(1-methylpyrazol-4-yl)imidazo[4,5-c]pyridin-2-amine], 30 to 50%.
On to `COc1ccc(Nc2cc3c(cn2)nc(-c2ccccc2)n3C)cc1` [Compound 705, N-(4-methoxyphenyl)-1-methyl-2-phenyl-imidazo[4,5-c]pyridin-6-amine], for which the Emax fell in the range of 30 to 50%.
The result for `CC(C)Oc1cccc(Nc2cc3[nH]c(-c4ccccn4)cc3cn2)c1` [Compound 73, N-(3-isopropoxyphenyl)-2-(2-pyridyl)-1H-pyrrolo[3,2-c]pyridin-6-amine] reads 50 to 100%; that for `CNc1nc2cnc(Nc3cccc(N(C)C)c3)cc2n1-c1ccccc1` [Compound 508, N6-[3-(dimethylamino)phenyl]-N2-methyl-1-phenyl-imidazo[4,5-c]pyridine-2,6-diamine], 50 to 100%; that for `Cn1c(-c2cccnc2)cc2c(Nc3cccc(NS(C)(=O)=O)c3)nccc21` [Compound 244, N-[3-[[1-methyl-2-(3-pyridyl)pyrrolo[3,2-c]pyridin-4-yl]amino]phenyl]methanesulfonamide], 50 to 100%.
Next, `COc1cccc(Nc2nccc3[nH]c(-c4ccco4)nc23)c1` [Compound 464, 2-(2-furyl)-N-(3-methoxyphenyl)-1H-imidazo[4,5-c]pyridin-4-amine]: 30 to 50%; `COc1ccc(Nc2cc3c(cn2)nc(NCc2ccccc2)n3C)cn1` [Compound 618, N2-benzyl-N6-(6-methoxy-3-pyridyl)-1-methyl-imidazo[4,5-c]pyridine-2,6-diamine]: 50 to 100%.
The result for `CN(C)C(=O)c1ccc(-c2cc3cnc(Nc4cccc(OC(F)(F)F)c4)cc3[nH]2)cc1` [Compound 33, N,N-dimethyl-4-[6-[3-(trifluoromethoxy)anilino]-1H-pyrrolo[3,2-c]pyridin-2-yl]benzamide] reads 30 to 50%; that for `CNc1nc2cnc(Nc3cccc(NC(C)=O)c3)cc2n1Cc1ccccc1` [Compound 538, N-[3-[[1-benzyl-2-(methylamino)imidazo[4,5-c]pyridin-6-yl]amino]phenyl]acetamide], 50 to 100%.
On to `CC(=O)c1cccc(Nc2cc3c(cn2)nc(C)n3C)c1` [Compound 698, 1-[3-[(1,2-dimethylimidazo[4,5-c]pyridin-6-yl)amino]phenyl]ethanone], for which the Emax lay within 30 to 50%.
For the compound `CNc1nc2cnc(Nc3cc(OC)c(OC)c(OC)c3)cc2n1Cc1ccccc1` [Compound 526, 1-benzyl-N2-methyl-N6-(3,4,5-trimethoxyphenyl)imidazo[4,5-c]pyridine-2,6-diamine], the Emax lay within 50 to 100%.
Next, `Clc1ccccc1-c1nc2c(NCCc3ccncc3)nccc2[nH]1` [Compound 459, 2-(2-chlorophenyl)-N-[2-(4-pyridyl)ethyl]-1H-imidazo[4,5-c]pyridin-4-amine]: 0 to 30%; `CN(C)C(=O)c1ccc(-c2cc3cnc(Nc4cccc(NS(C)(=O)=O)c4)cc3[nH]2)cc1` [Compound 39, 4-[6-[3-(methanesulfonamido)anilino]-1H-pyrrolo[3,2-c]pyridin-2-yl]-N,N-dimethyl-benzamide]: 50 to 100%.
Next, `CNc1nc2cnc(-c3cccnc3)cc2n1Cc1cccnc1` [Compound 563, N-methyl-6-(3-pyridyl)-1-(3-pyridylmethyl)imidazo[4,5-c]pyridin-2-amine]: 50 to 100%; `CN(C)c1cccc(Nc2cc3c(cn2)nc(NCc2ccccc2)n3C)c1` [Compound 619, N2-benzyl-N6-[3-(dimethylamino)phenyl]-1-methyl-imidazo[4,5-c]pyridine-2,6-diamine]: 50 to 100%.
The result for `Cn1cc(-c2cc3cnc(Nc4ccccn4)cc3n2C)cn1` [Compound 139, 1-methyl-2-(1-methylpyrazol-4-yl)-N-(2-pyridyl)pyrrolo[3,2-c]pyridin-6-amine] reads 50 to 100%; that for `CN(C)C(=O)c1ccc(-c2cc3cnc(Nc4ccc(OC(F)(F)F)cc4)cc3[nH]2)cc1` [Compound 34, N,N-dimethyl-4-[6-[4-(trifluoromethoxy)anilino]-1H-pyrrolo[3,2-c]pyridin-2-yl]benzamide], 0 to 30%; that for `COc1ccc(-c2cc3c(cn2)nc(NCc2cccc(C)c2)n3C)cc1OC` [Compound 579, 6-(3,4-dimethoxyphenyl)-1-methyl-N-(m-tolylmethyl)imidazo[4,5-c]pyridin-2-amine], 30 to 50%.
Regarding `COCCNc1nc2cnc(-c3ccc4ccccc4c3)cc2[nH]1` [Compound 677, N-(2-methoxyethyl)-6-(2-naphthyl)-1H-imidazo[4,5-c]pyridin-2-amine], the Emax lay within 50 to 100%.
Turning to `Cn1cncc1-c1cc2cnc(Nc3cccc(F)c3)cc2[nH]1` [Compound 108, N-(3-fluorophenyl)-2-(3-methylimidazol-4-yl)-1H-pyrrolo[3,2-c]pyridin-6-amine], the Emax fell in the range of 50 to 100%.
The result for `COc1ccc(Nc2nccc3[nH]c(-c4ccsc4)cc23)c(OC)c1` [Compound 251, N-(2,4-dimethoxyphenyl)-2-(3-thienyl)-1H-pyrrolo[3,2-c]pyridin-4-amine] reads 30 to 50%.
Next, `CN(C)C(=O)c1ccc(-c2cc3cnc(Nc4cccc(O)c4)cc3[nH]2)cc1` [Compound 31, 4-[6-(3-hydroxyanilino)-1H-pyrrolo[3,2-c]pyridin-2-yl]-N,N-dimethyl-benzamide]: more than 100%; `CNc1nc2cnc(Nc3ccc(NC(C)=O)cc3)cc2n1-c1cc(OC)c(OC)c(OC)c1` [Compound 483, N-[4-[[2-(methylamino)-1-(3,4,5-trimethoxyphenyl)imidazo[4,5-c]pyridin-6-yl]amino]phenyl]acetamide]: 50 to 100%; `CN(C)C(=O)c1ccc(-c2cc3cnc(Nc4ccccc4Cl)cc3[nH]2)cc1` [Compound 37, 4-[6-(2-chloroanilino)-1H-pyrrolo[3,2-c]pyridin-2-yl]-N,N-dimethyl-benzamide]: 30 to 50%.
For `Cn1c(NCC2CCCO2)nc2cnc(-c3ccc4ccccc4c3)cc21` (stereo not shown) [Compound 850, 1-methyl-6-(2-naphthyl)-N-(tetrahydrofuran-2-ylmethyl)imidazo[4,5-c]pyridin-2-amine], the Emax is 30 to 50%.
`Cn1c(NCC2CCCO2)nc2cnc(Nc3ccc(F)c(Cl)c3)cc21` (stereo not shown) [Compound 643, N6-(3-chloro-4-fluoro-phenyl)-1-methyl-N2-(tetrahydrofuran-2-ylmethyl)imidazo[4,5-c]pyridine-2,6-diamine]: the Emax is 30 to 50%.
The result for `COc1cccc(-c2nc3c(Nc4ccc(F)c(Cl)c4)nccc3[nH]2)c1F` [Compound 474, N-(3-chloro-4-fluoro-phenyl)-2-(2-fluoro-3-methoxy-phenyl)-1H-imidazo[4,5-c]pyridin-4-amine] reads 30 to 50%.
For the compound `CNc1nc2cnc(Nc3ccc(F)cc3)cc2n1Cc1cccnc1` [Compound 565, N6-(4-fluorophenyl)-N2-methyl-1-(3-pyridylmethyl)imidazo[4,5-c]pyridine-2,6-diamine], the Emax was 50 to 100%.
Next, `CNc1nc2cnc(Nc3ccc(NC(C)=O)cc3)cc2n1-c1cccc(C(F)(F)F)c1` [Compound 540, N-[4-[[2-(methylamino)-1-[3-(trifluoromethyl)phenyl]imidazo[4,5-c]pyridin-6-yl]amino]phenyl]acetamide]: 30 to 50%; `CNc1nc2cnc(Nc3ccc4c(c3)OCCO4)cc2n1-c1cccc(C(F)(F)F)c1` [Compound 544, N6-(2,3-dihydro-1,4-benzodioxin-6-yl)-N2-methyl-1-[3-(trifluoromethyl)phenyl]imidazo[4,5-c]pyridine-2,6-diamine]: 50 to 100%; `Cn1c(NCc2ccccc2)nc2cnc(-c3cncnc3)cc21` [Compound 623, N-benzyl-1-methyl-6-pyrimidin-5-yl-imidazo[4,5-c]pyridin-2-amine]: 30 to 50%.
The result for `COc1ccc(Nc2cc3c(cn2)cc(-c2cnn(C)c2)n3C)cc1OC` [Compound 129, N-(3,4-dimethoxyphenyl)-1-methyl-2-(1-methylpyrazol-4-yl)pyrrolo[3,2-c]pyridin-6-amine] reads more than 100%; that for `Cn1cnc2c(Nc3ccc4[nH]ccc4c3)nccc21` [Compound 448, N-(1H-indol-5-yl)-1-methyl-imidazo[4,5-c]pyridin-4-amine], 50 to 100%; that for `Cn1c(NCc2ccccc2F)nc2cnc(-c3cccs3)cc21` [Compound 658, N-[(2-fluorophenyl)methyl]-1-methyl-6-(2-thienyl)imidazo[4,5-c]pyridin-2-amine], 50 to 100%.
Next, `CN(C)C(=O)c1ccc(-c2cc3cnc(Nc4cccc(S(C)(=O)=O)c4)cc3[nH]2)cc1` [Compound 30, N,N-dimethyl-4-[6-(3-methylsulfonylanilino)-1H-pyrrolo[3,2-c]pyridin-2-yl]benzamide]: 50 to 100%.
Consider `COc1ccccc1-c1cc2c(N3CCOCC3)nccc2[nH]1` [Compound 193, 4-[2-(2-methoxyphenyl)-1H-pyrrolo[3,2-c]pyridin-4-yl]morpholine], for which the Emax lay within 50 to 100%.
